What was measured:
Format in all cases: cell-based
[1] = target: T1, asc-1 of mouse (co-expressed with 4F2hc of mouse) (Mus musculus, UniProt P63115); experiment: Release of preloaded 14C-alanine from oocytes co-expressing asc-1 and 4F2hc on extracellular addition of compound; conditions: 100 μM compound added to Na+-free uptake solution; room temperature
T1 construct: expressed in transfected cells; host or cells: Xenopus oocytes injected with cRNA
T1 sequence (P63115 1-530): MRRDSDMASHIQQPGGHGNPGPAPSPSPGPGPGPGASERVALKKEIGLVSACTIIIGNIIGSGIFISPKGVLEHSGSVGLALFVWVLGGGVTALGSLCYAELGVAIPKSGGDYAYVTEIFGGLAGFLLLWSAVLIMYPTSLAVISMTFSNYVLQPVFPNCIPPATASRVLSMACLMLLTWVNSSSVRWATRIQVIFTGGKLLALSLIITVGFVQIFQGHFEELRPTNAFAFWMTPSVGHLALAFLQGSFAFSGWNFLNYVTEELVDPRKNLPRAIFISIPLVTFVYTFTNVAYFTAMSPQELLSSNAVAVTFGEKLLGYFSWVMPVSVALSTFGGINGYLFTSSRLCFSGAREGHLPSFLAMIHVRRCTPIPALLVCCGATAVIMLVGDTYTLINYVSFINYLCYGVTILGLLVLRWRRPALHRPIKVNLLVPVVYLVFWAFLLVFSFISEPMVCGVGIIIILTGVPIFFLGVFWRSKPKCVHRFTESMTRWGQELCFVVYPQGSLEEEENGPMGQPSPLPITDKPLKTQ
T1 sequence (P10852 1-526 partner): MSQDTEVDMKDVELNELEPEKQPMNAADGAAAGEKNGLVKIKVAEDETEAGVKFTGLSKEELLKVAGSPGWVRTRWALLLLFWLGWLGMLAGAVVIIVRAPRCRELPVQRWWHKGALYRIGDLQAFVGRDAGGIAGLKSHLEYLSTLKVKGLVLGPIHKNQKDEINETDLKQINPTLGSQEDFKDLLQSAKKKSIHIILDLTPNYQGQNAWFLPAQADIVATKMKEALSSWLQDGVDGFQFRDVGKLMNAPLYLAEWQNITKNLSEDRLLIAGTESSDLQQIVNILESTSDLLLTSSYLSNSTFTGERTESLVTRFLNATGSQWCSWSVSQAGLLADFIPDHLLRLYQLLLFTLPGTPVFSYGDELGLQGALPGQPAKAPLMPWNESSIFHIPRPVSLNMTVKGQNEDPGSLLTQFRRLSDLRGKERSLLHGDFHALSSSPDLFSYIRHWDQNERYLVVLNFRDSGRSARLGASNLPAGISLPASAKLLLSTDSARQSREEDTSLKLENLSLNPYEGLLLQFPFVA
Description: (§1) Release of a preloaded ^14C-alanine mediated by asc-1 was checked in the oocytes into which both asc-1 gene cRNA and 4F2hc gene cRNA of mouse were injected together. ^14C-Alanine (−3nCi) of 100 μM in an amount of 100 nl was injected into the oocytes into which both asc-1 gene cRNA and 4F2hc gene cRNA of mouse were injected together, washed with an ice-cooled Na^+-free uptake solution containing no alanine and transferred to a Na^+-free uptake solution to which alanine (100 μM) was added or not added at room temperature (18° C.-22° C.) and the amount of ^14C-alanine released outside the cells was measured.
In oocytes into which cRNA of asc-1 gene and cRNA of 4F2hc gene of mouse were injected together, release of preloaded ^14C-alanine mediated by asc-1 was investigated whereupon it was checked whether the compound which inhibited the incorporation of ^14C-alanine mediated by asc-1 was a substrate of asc-1.
as §1, with “^14C-Alanine” for “Release of a preloaded ^14C-alanine mediated by asc-1 was checked in the oocytes into which both asc-1 gene cRNA and 4F2hc gene cRNA of mouse were injected together. ^14C-Alanine”, “which amino acid or amino acid analog” for “which alanine”
Black bars in FIG. 18 are the case where there were used oocytes into which cRNA of mouse asc-1 gene and cRNA of mouse 4F2hc gene were injected while white bars are the case where there were used oocytes into which water was injected instead of cRNA as a control.

[2] = target: T1, asc-1 of mouse (co-expressed with 4F2hc of mouse); experiment: Incorporation of radiolabeled amino acids and analogs by oocytes co-expressing asc-1 and 4F2hc; conditions: for incorporation into the oocytes as substrate: radiolabeled substrate, oocytes expressing both asc-1 and 4F2hc, Na+-free uptake solution; for transport by asc-1 (affinity in words): summary statement, asc-1 co-existing with 4F2hc
Description: Incorporation of alanine when asc-1 gene cRNA of mouse was solely expressed in oocytes of Xenopus and when asc-1 gene cRNA of mouse and 4F2hc gene cRNA of mouse were expressed in oocytes of Xenopus together was compared.
(§2) Into oocytes were injected 12 ng of asc-1 gene cRNA of mouse, 13 ng of 4F2hc gene cRNA of mouse or 12 ng asc-1 gene cRNA of mouse/13 ng of 4F2hc gene cRNA of mouse to express followed by incubating for 3 days. […] Thus, the oocytes were allowed to stand for 30 minutes in a Na^+-free uptake solution [100 mM choline chloride, 2 mM potassium chloride, 1.8 mM calcium chloride, 1 mM magnesium chloride, 5 mM HEPES; pH 7.4] containing ^14C-alanine (100 μM) as a substrate and the rate of the substrate incorporated into the cells was measured by way of counting the radioactivity incorporated thereinto.
In an experiment of incorporation of alanine by oocytes into which both asc-1 gene cRNA and 4F2hc gene cRNA of mouse were injected together, influence of the salt added to the medium was investigated.
The experiment of incorporation of alanine was carried out in accordance with the method mentioned in the above Example 2(1) using oocytes into which both asc-1 gene cRNA and 4F2hc gene cRNA of mouse were injected together. When the influence of sodium ion was checked however, a standard uptake solution (where 100 mM choline chloride was substituted with 100 mM sodium chloride) was used in place of the Na^+-free uptake solution as the uptake solution. When the influence of chlorine ion was checked, a gluconic acid uptake solution (where 100 mM sodium chloride was substituted with 100 mM sodium gluconate) was used in place of the standard uptake solution.
Incorporation by asc-1 was investigated using various amino acids and analogs thereof as substrates. Experiment for incorporation of various amino acids and analogs thereof was carried out according to the method mentioned in the above Example 2(1) using oocytes into which asc-1 gene cRNA of mouse and 4F2hc gene cRNA of mouse were injected together. With regard to the substrates however, various compounds labeled with radioactivity were used in place of ^14C-alanine.
Influence of pH was checked in an experiment for incorporation of alanine by oocytes into which both asc-1 gene cRNA and 4F2hc gene cRNA of mouse were injected together. With regard to an experiment for incorporation of alanine, the method according to that mentioned in the above Example 2 (1) was carried out using oocytes into which both asc-1 gene cRNA of mouse and 4F2hc gene cRNA of mouse were injected together.

[3] = target: T1, asc-1 of mouse (co-expressed with 4F2hc of mouse); experiment: Inhibition of 14C-alanine incorporation by added amino acids and analogs in oocytes co-expressing asc-1 and 4F2hc; conditions: 14C-alanine 50 μM; 5 mM non-labeled compound; Na+-free uptake solution
Description: as §2
In an experiment of incorporation of alanine by oocytes into which both asc-1 gene cRNA of mouse and 4F2hc gene cRNA of mouse were injected, influence of addition of various amino acid and analogs thereof was investigated.
In an experiment of incorporation of alanine, a method according to that mentioned in the above Example 2(1) was carried out using oocytes into which both asc-1 gene cRNA of mouse and 4F2hc gene cRNA of mouse were injected. Here, a Na^+-free uptake solution was used and incorporation of ^14C-alanine (50 μM) was measured in the presence and absence of 5 mM of various compounds (non-labeled).

[4] = target: T1, asc-1 of mouse (co-expressed with 4F2hc of mouse); experiment: Michaelis-Menten kinetic test of substrate incorporation by Xenopus oocytes co-expressing asc-1 and 4F2hc; conditions: ratio to the Vmax value for alanine (defined as 1.00)
Description: as §2
A Michaelis-Menten kinetic test was carried out for a sodium-independent small neutral amino acid transporter asc-1 which transports L- and D-amino acids. By checking the changes in the rate of incorporation of alanine due to the difference in concentration of the alanine substrate, the Michaelis-Menten kinetic test of asc-1 was carried out.
An experiment for the incorporation of alanine was carried out according to the method mentioned in the above Example 2(1) using the oocytes into which both asc-1 gene cRNA of mouse and 4F2hc gene cRNA of mouse were injected.
With regard to amino acids other than alanine which were used as substrates, a Michaelis-Menten kinetic was carried out as well in the same manner whereupon Km values and Vmax values were calculated. Each Vmax value in Table 1 was shown in terms of the ratio when the Vmax value of alanine was defined as 1.00.

[5] = target: T2, intracellular substrate-binding site of asc-1 of mouse (Mus musculus, UniProt P63115); experiment: Release of injected 14C-amino acid from oocytes co-expressing asc-1 and 4F2hc on extracellular alanine; conditions: alanine 100 μM added to Na+-free uptake solution
T2 construct: expressed in transfected cells; host or cells: Xenopus oocytes injected with cRNA
T2 sequence (P63115 1-530): T1 sequence (P63115 1-530)
T2 sequence (P10852 1-526 partner): T1 sequence (P10852 1-526 partner)
Description: In oocytes into which cRNA of asc-1 gene and cRNA of 4F2hc gene of mouse were injected together, release of preloaded ^14C-amino acid mediated by asc-1 was checked whereby the substrate selectivity of intracellular substrate-binding site of asc-1 was checked.
^14C-Amino acid (˜3nCi) of 100 μM in an amount of 100 nl was injected into the oocytes into which both asc-1 gene cRNA and 4F2hc gene cRNA of mouse were injected together, washed with an ice-cooled Na^+-free uptake solution containing no alanine and transferred to a Na^+-free uptake solution to which alanine (100 μM) was added or not added at room temperature (18° C.-22° C.) and the amount of ^14C-amino acid released outside the cells was measured.
Black bars in FIG. 21 show the case where alanine was added to a Na^+-free uptake solution while bars with oblique lines show the case where alanine was not added to a Na^+-free uptake solution.

CC(C)(N)C(=O)O [AIB, α-aminoisobutyric acid]
increase in the release of preloaded 14C-alanine [1]: significant increase
incorporation into the oocytes as substrate [2]: big incorporation
transport by asc-1 (affinity in words) [2]: transports
inhibition of incorporation of 14C-alanine mediated by asc-1 [3]: inhibited
Vmax [4]: 0.81

NC1(C(=O)O)CC2CCC1C2 (stereo not drawn) [BCH, 2-amino-2-norbornane-carboxylic acid]
inhibition of incorporation of 14C-alanine mediated by asc-1 [3]: did not affect

C[C@@H](N)C(=O)O [D-Alanine]
increase in the release of preloaded 14C-alanine [1]: significant increase
incorporation into the oocytes as substrate [2]: big incorporation
transport by asc-1 (affinity in words) [2]: transports
inhibition of incorporation of 14C-alanine mediated by asc-1 [3]: strongly inhibited
Vmax [4]: 0.86

N[C@H](CO)C(=O)O [D-Serine]
increase in the release of preloaded 14C-alanine [1]: significant increase
incorporation into the oocytes as substrate [2]: big incorporation
transport by asc-1 (affinity in words) [2]: highly affinitive
inhibition of incorporation of 14C-alanine mediated by asc-1 [3]: strongly inhibited
Vmax [4]: 1.22

C[C@H](O)[C@@H](N)C(=O)O [D-Threonine]
increase in the release of preloaded 14C-alanine [1]: significant increase

N[C@H](CS)C(=O)O [D-cysteine]
increase in the release of preloaded 14C-alanine [1]: significant increase
transport by asc-1 (affinity in words) [2]: transports
inhibition of incorporation of 14C-alanine mediated by asc-1 [3]: mediumly inhibited

NCC(=O)O [Glycine]
increase in the release of preloaded 14C-alanine [1]: high increase
release of injected 14C-labeled amino acid by extracellular alanine [5]: increase in release
Vmax [4]: 0.89

N[C@@H](CS)C(=O)O [L-Cysteine]
incorporation into the oocytes as substrate [2]: big incorporation
transport by asc-1 (affinity in words) [2]: highly affinitive
release of injected 14C-labeled amino acid by extracellular alanine [5]: increase in release
inhibition of incorporation of 14C-alanine mediated by asc-1 [3]: particularly strongly inhibited
Vmax [4]: 0.82

N[C@@H](Cc1c[nH]cn1)C(=O)O [L-Histidine]
transport by asc-1 (affinity in words) [2]: lowly affinitive
Vmax [4]: 0.79

CC[C@H](C)[C@H](N)C(=O)O [L-Isoleucine]
transport by asc-1 (affinity in words) [2]: lowly affinitive
Vmax [4]: 1.33

CSCC[C@H](N)C(=O)O [L-Methionine]
increase in the release of preloaded 14C-alanine [1]: medium increase
transport by asc-1 (affinity in words) [2]: lowly affinitive
Vmax [4]: 1.15

N[C@@H](Cc1ccccc1)C(=O)O [L-Phenylalanine]
transport by asc-1 (affinity in words) [2]: lowly affinitive
Vmax [4]: 1.09

C[C@@H](O)[C@H](N)C(=O)O [L-Threonine]
increase in the release of preloaded 14C-alanine [1]: high increase
release of injected 14C-labeled amino acid by extracellular alanine [5]: increase in release
Vmax [4]: 0.86

CC(C)[C@H](N)C(=O)O [L-Valine]
increase in the release of preloaded 14C-alanine [1]: medium increase
transport by asc-1 (affinity in words) [2]: lowly affinitive
Vmax [4]: 1.17

CN[C@@H](C)C(=O)O [N-methylalanine]
inhibition of incorporation of 14C-alanine mediated by asc-1 [3]: did not affect

COC(=O)[C@H](C)N [alanine methyl ester]
increase in the release of preloaded 14C-alanine [1]: significant increase
transport by asc-1 (affinity in words) [2]: transports
inhibition of incorporation of 14C-alanine mediated by asc-1 [3]: inhibited

CNCC(=O)O [sarcosine]
inhibition of incorporation of 14C-alanine mediated by asc-1 [3]: did not affect

NCCC(=O)O [β-Alanine]
increase in the release of preloaded 14C-alanine [1]: significant increase
incorporation into the oocytes as substrate [2]: big incorporation
transport by asc-1 (affinity in words) [2]: transports
inhibition of incorporation of 14C-alanine mediated by asc-1 [3]: inhibited
Vmax [4]: 0.92

γ-aminoisobutyric acid
inhibition of incorporation of 14C-alanine mediated by asc-1 [3]: did not affect

From patent US20070122422A1, “Sodium-independent small neutral amino acid transporter transporting L- and D- amino acids” (Japan Science and Technology Corporation, priority 2000, published 2007)
